# Measurements: patent publication US20080171721A1, “Halogenated alkyl di- and trisaccharides, pharmaceutical formulations, diagnostic kits and methods of treatment” (priority 2007, published 2008)
# Assays:
# [1] = test system: S. aureus; test: Antimicrobial testing, time-kill with plate count; assay type: cell-based, Staphylococcus aureus; details: antimicrobial if greater than 5 log reduction
# Description: (§1) The preferred embodiment was tested for antimicrobial activity using the following procedure.
# (§2) A 1% solution of Compound 3 was prepared in DPBS (Dulbecco's phosphate buffered saline). A 25 ml mixture of the 1% Compound 3 and PBS (phosphate buffered saline, pH 7.2 was prepared by mixing 5 ml of the 1% Compound 3 solution and 20 ml of the PBS.
# (§3) A 10 ml aliquot of the above mixture was placed into each of two sterile test tubes. One test tube was inoculated with 0.1 ml of S. aureus and the other with 0.1 ml of P. aeruginosa, such that there was a final concentration of 10^6 colony-forming units (CFU)/0.1 mls.
# (§4) A various time points, 1.0 ml of each inoculated test sample were removed, diluted 10× with 0.45% saline and plated on trypticase soy agar (TSA) plates.
# (§5) The plates were incubated at 30-35° C. for not less than 24 hours. Concentration of CFU in the samples taken at each time point were enumerated by standard methods. The log reduction was calculated for each time period and organism. The log reduction was calculated using the formula: Log reduction=Log inoculums verification−sample log recovery.
# [2] = test system: P. aeruginosa; test: Antimicrobial testing, time-kill with plate count; assay type: cell-based, Pseudomonas aeruginosa; details: antimicrobial if greater than 5 log reduction
# Description: as §1, §2, §3, §4, §5
compound,measurement,setting,value
"CCCCCCCCCCCC(=O)OCC1O[C@H](O[C@@]2(CCl)O[C@H](CCl)C(O)C2O)C(O)C(O)[C@H]1Cl (stereo in doubt) [Compound 3, 1′,6′-Dichloro-1′,6′-dideoxy-β-D-fructofuranosyl-4-chloro-4-deoxy-6-O-monododecanoate-α-galactopyranoside]",antimicrobial effect,[1],has antimicrobial effect against S. aureus
same,antimicrobial effect,[2],not P. aeruginosa
